Series [1] concerns hepatic adipose infiltration model mice. Briefly: hepatic adipose infiltration model in mice (MCD diet), oil red O and HE staining of hepatic sections. As to conditions: tail i.v. once every three days, 15 days, 2.5, 5 and 10 mg/kg, FIG. 2. The series is classed as in vivo. An excerpt:
(1) Induction on hepatic adipose infiltration model in mice. 10 male C57BL/6J mice (purchased from the department of experimental animals, Medical Division of Peking University) with age of 8-10 weeks are divided into two groups (normal diet and MCD diet). MCD (high-fat, methionine-choline deficient) diet is a common program for the investigations on non-alcoholic fatty liver in this field. The hepatic adipose infiltration model in mice is obtained after treatments for 10-16 weeks. (2) Treatments on Hepatic Adipose Infiltration Using Small Interfering Nucleotides
1.2 mg (0.09 μmol) small interfering nucleotides from FAM3B-43 to FAM3B-46 with modification in the example 3 is dissolved in 1.5 ml RNAase free sterilized physiological saline to prepare a solution comprising 60 μmol/L small interfering nucleotides, and it is mixed in certain proportion with the carrier material. The injection is obtained after the mixed small interfering nucleotide is added into 5 ml RNAase free sterile physiological saline (the concentration of the small interfering nucleotide is 0.25 mg/ml). […]

The test system of series [2] is FAM3B protein in hepatic tissues. Briefly: FAM3B protein expression in hepatic tissues of hyperlipemia model mice. The format is in vivo. The note with it: tail vein, daily for 7 days. An excerpt: (§1) The hyperlipemia model of mice is induced by using high-fat feeds, the C57BL/6J mice are purchased from Vital River, male, three weeks old. The formula for the high fat feeds is as below: basic feeds 83.5%, […], 1% cholesterol, 10% pork fat, 0.2% propylthiouracil, 0.3% sodium deoxycholate, 5% sucrose, and it is produced by the experimental animal center of Academy of Military Medical Sciences. The hyperlipemia model of mice is obtained after induction for 3-4 weeks.
(§2) After the small interfering nucleotide of FAM3B gene FAM3B-46 is labelled with cholesterol or coated with liposome, it is injected into the hyperlipemia model of mice via their tail veins. The injection is carried out for continuous 7 days with one injection each day and the samples are collected after 7 days. The standard dosages for injection are 2.5 mg, 5 mg and 10 mg for every kilogram of body weight. Other dosages such as 0.1 mg-50 mg small interfering nucleotide for every kilogram of body weight are also under test.

In series [3] the test system is FAM3B mRNA in intestine. Kind of series: FAM3B mRNA expression in intestine of hyperlipemia model mice. The series is classed as in vivo. The note with it: tail vein, daily for 7 days, FIG. 7.
Excerpt: as §1, §2

Series [4] deals with FAM3B protein in intestine. Kind of series: FAM3B protein expression in intestine of hyperlipemia model mice. The note with it: tail vein, daily for 7 days. The series is classed as in vivo.
Excerpt: as §1, §2

The test system of series [5] is hyperlipemia model of mice. Kind of series: TG and cholesterol levels in hepatic tissues of hyperlipemia model mice. The format is in vivo. As to conditions: tail vein, daily for 7 days, FIG. 8.
Excerpt: as §1
as §2, with “test. The products from Zhongsheng Beikong Biological Technological Co., Ltd. are used as the kit for detecting triglyceride (TG) and cholesterol, and they are determined on a SABA/18 automated biochemical analyzer. The detections are carried out with reference to the instruction for the kits of Biosino Bio-Technology and Science Incorporation. The animals are subjected to fast dieting 16 hours before blood sample collection.” for “test.”

Series [6] concerns hyperlipemia model of mice. Briefly: TG and cholesterol levels in blood of hyperlipemia model mice. The format is in vivo. The note with it: tail vein, daily for 7 days, FIG. 9.
Excerpt: as §1, §2

Series [7] deals with FAM3B protein in HepG2 cells. Briefly: Western blot of FAM3B protein in transfected HepG2 cells. The series is classed as cell-based, human. The note with it: 48 hours after transfection, Western blot grayscale, FIG. 5. Here is the method:
The cells are digested with 0.25% trypsin 24 hours before the transfection, then the cells are counted and inoculated into the 24 well plate in a density of 1×10^5 cells/ml, and 1000 μl cells are added in each well. Lipofectamine™ 2000 liposome from Invitrogen Company is used for the transfection with the small interfering nucleotides obtained from example 1 (FAM3B-1 to FAM3B-32) respectively, and unrelated small interfering nucleotide (the sense strand: 5-[…]-3 (SEQ ID NO: 78); the antisense strand: 5-ACGUGACACGUUC GGAGAATT-3 (SEQ ID NO: 79)) is used as the negative control.
(4) Inhibition on FAM3B Protein Expression by Using Small Interfering Nucleotides
After the cells transfected according to step (2) in example 6 are cultured for 48 hours, the cells are disrupted by using the protein lysis buffer and the total proteins are extracted, and the protein sample is examined according to the standard procedure for Western blot. For the detection of FAM3B protein, the membrane is incubated with the rabbit derived anti-FAM3B antibody (R&D systems), the secondary antibody is the peroxidase labelled horse anti-rabbit antibody (Zhongshan Jinqiao); the antibody for detecting the internal reference β-actin: the primary antibody is mouse derived anti-β-actin antibody, and the secondary antibody is the peroxidase labelled goat anti-mouse antibody, and the results are subjected to grayscale comparison shown as FIG. 5.

Series [8] concerns HepG2 cells. Briefly: inhibition of fat-emulsion-induced lipid accumulation in HepG2 cells, oil red O staining. The series is classed as cell-based, human. As to conditions: 20% fat emulsion induction 48 hours, 50 nM, 48 hours after transfection, FIG. 6. Here is the method: (1) Induction of Lipid Accumulation in HepG2 Cells
The cells are inoculated in the 24 well culture plate in a density of 2×10^4 cells/1 mL, 20% fat emulsion for medical use is added in each well in a dosage of 2 ml/L, and the cells are cultured for 48 hours. The culture is stopped and oil red O staining is carried out to observe the lipids in the cells. The operations are as followed: the cells are rinsed with PBS for three times and 5 minutes each; then the cells are fixed with 50% isopropanol for 1 min and stained with oil red O for 10 min; the cells are rinsed with distilled water for three times and 1 min each; the cells are observed and photographed under a microscope. Normally, the cells might be not stained or only slightly stained, large amount of lipids accumulated in the cells after induction with fat emulsion for medical use, and red lipid droplets can be detected under the microscope after the staining with oil red O.
(2) Determination of the Inhibitory Effects on Lipid Accumulation in HepG2 Cells […]

Setting [9] is: standard dosages 2.5, 5, 10 mg/kg.
Where [10] appears, read: standard dosages and 10 mg/kilogram body weight.

Experimental findings from patent US8754058B2, “Inhibitors of FAM3B gene, inhibitor compositions, inhibiting methods and applications of inhibitors in preparing pharmaceuticals” (Suzhou Ribo Life Science Company, Ltd., priority 2009, dated 2014) are described below.

“Also recorded” adds a separate entry of the source. d = 2'-deoxy (DNA); r = 2'-OH (RNA)

In the case of “FAM3B-46: chemically modified mouse FAM3B siRNA (2′-O-methyl sense with cholesterol, 2′-fluoro antisense); 5-UCAGAAAUCGAGAGAGAAAdTdT; 5-UUUCUCUCUCGAUUUCUGAdTdT (sense UCAGAAAUCGAGAGAGAAATT; antisense UUUCUCUCUCGAUUUCUGATT; Sense 2'-OMe, antisense 2'-F at italic positions, sense cholesterol at terminus, further chemistry not given here)”, in series [1], the “degree of hepatic adipose infiltration (oil red O and HE staining)” value is reported as “effectively reduce the degree of hepatic adipose infiltration; also recorded: significantly reduced”. Also, the “reduction of FAM3B protein expression in hepatic tissues” value in series [2] (setting [9]) is 40%. The figures for the “reduction of FAM3B mRNA expression in intestine” value in series [3] and in series [3] (setting [9]) were “significantly inhibit” and 45%, respectively. In addition, in series [4] (setting [9]), the “reduction of FAM3B protein expression in intestine” value is listed as 30%. Moreover, the “reduction of TG level in hepatic tissues” value in series [5] (5 mg and 10 mg/kilogram body weight) is listed as 20-40%; in series [5], “significantly reduce”. The “reduction of cholesterol level in hepatic tissues” value in series [5] (10 mg/kilogram body weight) is 15-30%; in series [5], “significantly reduce”. Further, the “reduction of TG level in blood” value was “significantly reduce” in series [6] and 25-50% in series [6] (setting [10]). The “reduction of cholesterol level in blood” value in series [6] is “significantly reduce”. The “reduction of cholesterol level (cholesterol level in blood examined; printed 'in hepatic tissues')” value in series [6] (setting [10]) is recorded as 25-50%.
As for “FAM3B-24: siRNA, human FAM3B; sense 5′-GAGUAAAUGUGUUCUGUAUdTdT-3′; antisense 5′-AUACAGAACACAUUUACUCdTdT-3′ (sense GAGUAAAUGUGUUCUGUAUTT; antisense AUACAGAACACAUUUACUCTT; sugars from the 5' end r19 d2, backbone not given here)”, the “inhibition of FAM3B protein expression in HepG2 cells” value in series [7] was “significantly inhibit”.
Regarding “unrelated small interfering nucleotide: negative control siRNA; sense 5-UUCUCCGAACGUGUCACGUTT-3 (SEQ ID NO: 78); antisense 5-ACGUGACACGUUCGGAGAATT-3 (SEQ ID NO: 79) (chemistry not given here) [reference compound]”, the “reduction of FAM3B protein expression in hepatic tissues” value in series [2] is recorded as “could not significantly reduce”. Besides, the “reduction of FAM3B mRNA expression in intestine” value in series [3] is reported as “could not significantly reduce”. Further, the “reduction of FAM3B protein expression in intestine” value in series [4] is listed as “could not significantly reduce”. Moreover, in series [5], the “reduction of TG level in hepatic tissues” value is “could not significantly reduce” and the “reduction of cholesterol level in hepatic tissues” value is recorded as “could not significantly reduce”. For the same substance, in series [6], the “reduction of TG level in blood” value is given as “could not significantly reduce” and the “reduction of cholesterol level in blood” value is “could not significantly reduce”.
As for “FAM3B-17: siRNA, human FAM3B; sense 5′-GGUCUAGCUGGGUAUUUAUdTdT-3′; antisense 5′-AUAAAUACCCAGCUAGACCdTdT-3′ (sense GGUCUAGCUGGGUAUUUAUTT; antisense AUAAAUACCCAGCUAGACCTT; sugars from the 5' end r19 d2, backbone not given here)”, the “inhibition of FAM3B protein expression in HepG2 cells” value in series [7] is recorded as “significantly inhibit”.
Regarding “FAM3B-11: siRNA, human FAM3B; sense 5′-CUCUGGACCGAUGACAAAGdTdT-3′; antisense 5′-CUUUGUCAUCGGUCCAGAGdTdT-3′ (sense CUCUGGACCGAUGACAAAGTT; antisense CUUUGUCAUCGGUCCAGAGTT; sugars from the 5' end r19 d2, backbone not given here)”, the “inhibition of FAM3B protein expression in HepG2 cells” value in series [7] was “significantly inhibit”.
As for “FAM3B-15: siRNA, human FAM3B; sense 5′-GCACUUGGAAGUAAAGAAAdTdT-3′; antisense 5′-UUUCUUUACUUCCAAGUGCdTdT-3′ (sense GCACUUGGAAGUAAAGAAATT; antisense UUUCUUUACUUCCAAGUGCTT; sugars from the 5' end r19 d2, backbone not given here)”, the “inhibition of FAM3B protein expression in HepG2 cells” value in series [7] is given as “significantly inhibit”.
With “FAM3B-20: siRNA, human FAM3B; sense 5′-GCUAAGAACAACAGAUAUUdTdT-3′; antisense 5′-AAUAUCUGUUGUUCUUAGCdTdT-3′ (sense GCUAAGAACAACAGAUAUUTT; antisense AAUAUCUGUUGUUCUUAGCTT; sugars from the 5' end r19 d2, backbone not given here)”, the “inhibition of FAM3B protein expression in HepG2 cells” value in series [7] was “significantly inhibit”. Moreover, the “inhibition of fatty deposition in HepG2 cells” value in series [8] was “significantly inhibit fatty deposition”.
